Laboratory results published in US6451828B1, “Selective inhibition of glutaminase by bis-thiadiazoles” (priority 2000, dated 2002).

Assays:
[1] = tested on: intestinal epithelial (CACO2) cells; experiment: Intracellular nucleotides in intestinal epithelial cells; format: cell-based; details: at 10 μM, FIG. 5B
Procedure: The remaining volume of the extracts was used for chromatographic determination of nucleic acids, as described in Di Pierro et al. This assay reflects the activity of a variety of glutamine amidotransferases, including CTP synthetase, which are mechanistically and functionally related to glutaminase.
CTP synthetase is a glutamine amidotransferase which synthesizes CTP by adding the amide nitrogen of glutamine to UTP.
Intestinal epithelial (CACO2) cells were grown in 12 well plates with Eagles minimal essential medium containing 2 mM glutamine, as recommended (American Tissue Culture Collection). When the cells reached about 80% confluency, fresh glutamine was added to 2 mM. […] After 6.5 h of incubation, cultures were washed twice with phosphate buffered saline and extracted with 100 μL 1M perchloric acid. Extracts were neutralized with 30 μL of 5M potassium carbonate, centrifuged, and analyzed by HPLC for nucleotides, as described in Di Pierro et al. 1995, and for amino acids, as described in Lo et al. 1998. Results are shown in FIG. 5A (amino acids) and FIG. 5B (nucleotides).

calpain 1 = target: T1, calpain 1 (Homo sapiens, UniProt P07384); experiment: Specificity: effect on mechanistically related enzyme; format: biochemical; details: at 30 μM (data not shown)
T1 sequence (P07384 1-714): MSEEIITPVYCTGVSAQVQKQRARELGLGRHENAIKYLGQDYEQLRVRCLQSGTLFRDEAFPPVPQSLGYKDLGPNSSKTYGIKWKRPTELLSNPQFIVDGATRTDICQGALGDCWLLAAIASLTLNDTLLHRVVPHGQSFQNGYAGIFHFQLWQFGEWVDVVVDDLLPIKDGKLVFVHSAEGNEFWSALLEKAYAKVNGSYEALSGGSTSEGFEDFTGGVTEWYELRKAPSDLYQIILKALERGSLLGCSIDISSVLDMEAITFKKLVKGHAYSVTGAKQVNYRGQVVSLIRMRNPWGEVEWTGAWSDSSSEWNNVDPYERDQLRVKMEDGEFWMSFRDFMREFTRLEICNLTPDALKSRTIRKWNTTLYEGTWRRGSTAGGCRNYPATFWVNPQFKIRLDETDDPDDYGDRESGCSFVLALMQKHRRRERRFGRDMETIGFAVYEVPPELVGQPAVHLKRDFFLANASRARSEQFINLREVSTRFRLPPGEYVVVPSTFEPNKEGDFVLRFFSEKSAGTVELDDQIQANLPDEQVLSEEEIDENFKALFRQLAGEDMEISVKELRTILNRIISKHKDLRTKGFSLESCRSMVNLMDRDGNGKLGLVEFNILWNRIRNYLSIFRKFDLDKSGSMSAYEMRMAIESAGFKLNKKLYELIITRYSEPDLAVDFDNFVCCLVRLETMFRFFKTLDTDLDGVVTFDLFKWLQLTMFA
T1 sequence (P04632 1-268 partner): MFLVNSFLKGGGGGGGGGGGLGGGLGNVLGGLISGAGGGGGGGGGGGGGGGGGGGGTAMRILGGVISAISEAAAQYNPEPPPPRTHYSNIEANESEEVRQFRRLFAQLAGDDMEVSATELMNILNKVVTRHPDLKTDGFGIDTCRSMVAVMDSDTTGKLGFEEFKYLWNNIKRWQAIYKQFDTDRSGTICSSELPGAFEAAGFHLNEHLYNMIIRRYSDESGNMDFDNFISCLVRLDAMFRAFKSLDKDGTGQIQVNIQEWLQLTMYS
Procedure: (§1) Specificity for glutaminase was evaluated at two levels. Compounds were evaluated for specific interactions with several thiol hydrolases (cathepsin B, caspase-9, calpain-1, and […]). These are cysteine proteases which are believed to function by a mechanisms similar to that of glutaminase. Compounds were also evaluated for effects on intracellular amino acids and nucleotides in CACO2 (intestinal epithelial) cells (Example 5), and for effects on amino acids in primary cultures of cerebellar neurons (granule cells) and astrocytes (Examples 6-7). These measurements reflect interactions with other glutamine utilizing enzymes involved in amino acid and nucleic acid biosynthesis and homeostasis. For example, a decrease in cytidine triphosphate (CTP) and an increase in uridine triphosphate (UTP) on treatment with DON (6-diazo-5-oxo-L-norleucine), a known nonselective antiglutamine affinity label, is indicative of inhibition of the activity of CTP synthetase, for which UTP is the substrate and CTP the product.

caspase 9 = target: T2, caspase 9 (Homo sapiens, UniProt P55211); experiment: as above; format: biochemical; details: at 30 μM (data not shown)
T2 sequence (P55211 1-416): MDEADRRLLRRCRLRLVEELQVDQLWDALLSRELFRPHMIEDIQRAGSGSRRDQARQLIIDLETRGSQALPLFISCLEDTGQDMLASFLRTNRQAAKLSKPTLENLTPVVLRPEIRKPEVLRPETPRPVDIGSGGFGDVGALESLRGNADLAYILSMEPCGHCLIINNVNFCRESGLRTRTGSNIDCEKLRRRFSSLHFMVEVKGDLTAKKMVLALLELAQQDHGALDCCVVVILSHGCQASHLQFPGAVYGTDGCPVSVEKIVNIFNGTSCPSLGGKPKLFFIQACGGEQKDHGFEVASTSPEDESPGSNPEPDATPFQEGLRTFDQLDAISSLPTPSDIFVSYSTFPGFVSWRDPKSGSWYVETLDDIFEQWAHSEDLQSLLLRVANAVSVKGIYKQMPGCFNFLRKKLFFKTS
Procedure: as §1

cathespin B = cathespin B (Homo sapiens, UniProt P07858); experiment: as above; format: biochemical; details: at 30 μM (data not shown)
Procedure: as §1

thrombin = thrombin (Homo sapiens, UniProt P00734); experiment: as above; format: biochemical; details: at 30 μM (data not shown)
Procedure: as §1

O=C(Cc1ccccc1)Nc1nnc(CCSCCc2nnc(NC(=O)Cc3ccccc3)s2)s1 [SNX-1770, bis-2′-[5-(phenylacetamido)-1,3,4-thiadiazol-2-yl]ethyl sulfide]
Effect on intracellular nucleotides [1]: no effect
Effect on calpain 1 (calpain 1): Nor did it have any effect
Effect on caspase 9 (caspase 9): Nor did it have any effect
Effect on cathespin B (cathespin B): Nor did it have any effect
Effect on thrombin (thrombin): Nor did it have any effect
